Data on two compounds can be found in paper PMC11847541, “Liver fatty acid binding protein FABP1 transfers substrates to cytochrome P450 4A11 for catalysis” (The Journal of Biological Chemistry, 2025).

The target of the data set is T1, FABP1 (Homo sapiens, UniProt P07148).
T1 construct: GST (N, cleaved yes); made in house; host or cells: Escherichia coli DH5α
T1 sequence (P07148 with tags, fused parts or gaps): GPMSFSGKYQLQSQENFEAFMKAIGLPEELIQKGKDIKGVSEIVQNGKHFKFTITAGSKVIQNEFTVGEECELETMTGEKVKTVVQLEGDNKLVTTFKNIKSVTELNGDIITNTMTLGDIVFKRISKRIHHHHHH
The data set can be described thus: DAUDA displacement fluorescence titrations of DAUDA–FABP1 with fatty acids, fit in KinTek Explorer. Format: binding. The text has this:
The FABP–DAUDA system was used to screen saturated fatty acids (C12 to C18) for binding to FABP, and the Kd values were estimated in competition with the fluorophore (using its known Kd) with the kinetic modeling software KinTek Explorer. The general model is shown in Fig. 5A, where the substrate is competed against the fluorescent DAUDA–FABP1 complex for binding, yielding a ternary DAUDA–FABP1–substrate complex that is accompanied by an attenuation in fluorescence.
Figure 5 Fluorescence titrations of DAUDA–FABP1 with fatty acids (“forward” titrations).A, model of all binding equilibria accounted for in the DAUDA displacement assays. In the fluorescence assays (λex = 335 nm), DAUDA (D) binds to FABP1 (F) to form a fluorescent (indicated with yellow flash) complex (FD), with which a lipid (S) is then competed against for binding. The binding of S attenuates the fluorescence (denoted with a smaller yellow flash) and forms a ternary complex (FDS). High concentrations of S may completely displace D to form FSS, a spectroscopically silent complex. Using this method, fluorescence titrations were carried out with the fatty acids (B) laurate, (C) myristate, (D) palmitate, (E) 16-hydroxypalmitate, and (F) stearate. Fluorescence at the emission maximum (482 nm) was monitored (as in Fig. 4) and normalized to the starting fluorescence (i.e., the FD complex prior to the addition of S). Each data point corresponds to one independent replicate. DAUDA, 11-dansylaminoundecanoic acid; FABP1, fatty acid binding protein.
For the titrations with lipids, solutions of FABP1 (0.5 μM) and DAUDA (0.25 μM) were prepared such that the fluorescent species was not present in excess ([75]). A baseline was recorded with phosphate buffer, and a starting (basis) spectrum was recorded of the FABP–DAUDA complex (1 ml). The lipid solutions were gradually added to the cuvette with gentle mixing (pipetting up and down ∼7× with a pipette tip), and spectra were recorded (Fig. S12A). Control titrations were also performed the same day with solvent alone (Fig. S12B) as a normalizing factor for the lipid titrations as fluorescence attenuation was also observed to a much lesser degree as a solvent effect (Fig. S12C, D). […] The data were processed such that within the lipid titration and the solvent titration, the F482 values were normalized to the starting value (the initial FABP1–DAUDA complex with nothing added, set to 100%). The relative fluorescence of the lipid titration was then normalized to the relative fluorescence of the solvent titration to adjust for fluorescence attenuation observed in the solvent titration (presumably from altering the fluorophore environment). Thus, the data were processed according to y=(F482/F482(initial))lipid/(F482/F482(initial))solvent , and the resulting values were plotted as a function of lipid concentration (Fig. S12E). The curve was imported into KinTek Explorer ([76]) and was fit to a kinetic model (Fig. S13) to determine the Kd values (Table 1). Within the KinTek software, all fluorescent species required fluorescence scaling factors to convert signal to concentration. Scaling factors for the FABP–DAUDA complex, FABP–DAUDA–lipid complex, and DAUDA alone were 460, 92, and 8, respectively.
Figure S12. Data processing for FABP1 titration with palmitate. Fluorescence spectrum of increasing additions of (A) palmitate (0-2 µM, added in C2H5OH) and (B) C2H5OH to a mixture of DAUDA (0.25 µM) and FABP1 (0.5 µM), performed as described in the Experimental Methods (see “Titrations of FABP1 with lipids, DAUDA”). C, fluorescence values at 482 nm (F482) from the titrations presented in parts A and B are normalized to the starting values (DAUDA-FABP1 complex, no volume added). Data are reported as a function of volume of titrant added to the cuvette (black, C2H5OH alone; red, palmitate in C2H5OH). […]

Setting [1] is: lipid binding to DAUDA-bound FABP1 (DAUDA displacement), read-out: Kd, FD + S ↔ FDS.
Setting [2] is: lipid binding to apo-FABP1, estimated via kinetic modeling, read-out: Kd, F + S ↔ FS.
Setting [3] is: lipid binding to ternary complex FDS (full displacement of DAUDA), low-affinity site, read-out: Kd, FDS + S ↔ FSS + D.

Several values for one entry are separate records, joined by “and”; a condition that tells them apart may be missing. Equal values may be shown once. Read-outs that look alike come from different tables or passages of the source.

One may read the Kd as a measure of binding affinity in units of concentration. On to `O=C(O)CCCCCCCCCCCCCCCO` [16-OH Palmitate (C16), 16-hydroxypalmitate], for which the “koff, F + S ↔ FS” value (lipid (S) binding to apo-FABP1 (F), kinetic modeling, on-rate 9.0 × 10^7 M^−1 s^−1) stood at 47 s⁻¹. Also, the equilibrium dissociation constant (Kd) under setting [1] was determined as 15 µM, the equilibrium dissociation constant (Kd) under setting [2] is 0.52 µM and the Kd under setting [3] was found to be 63 µM. The “koff, FD + S ↔ FDS” value (lipid binding to DAUDA-bound FABP1 (FD), on-rate 2.3 × 10^7 M^−1 s^−1) stood at 350 s⁻¹. Further, the “koff, FDS + S ↔ FSS + D” value (lipid binding to ternary complex FDS (full displacement of DAUDA)) came to 1500 s⁻¹.

In general, koff refers to the first-order rate constant of dissociation. With `CCCCCCCCCCCCCCCC(=O)O` [Palmitate (C16), palmitate], the “affinity difference between the two FABP1 binding sites” value is on record as above 250 fold. Also, the “koff of palmitate from FABP1 relative to binding of palmitate (1–10 μM) to P450 4A11” value (faster) is 10–100 fold. For the setting “lipid 0.01 µM, FABP1 0.5 µM, DAUDA 0.25 µM, F482 normalized, read-out: % Fluorescence”, the remaining activity at 0.01 µM stood at 91%. Further, for the setting “lipid 0.025 µM, FABP1 0.5 µM, DAUDA 0.25 µM, F482 normalized”, the remaining activity at 0.025 µM is 85.5%. The same compound yielded a remaining activity at 0.05 µM (lipid 0.05 µM, FABP1 0.5 µM, DAUDA 0.25 µM, F482 normalized) of 84.5%. Further, the remaining activity at 0.075 µM (lipid 0.075 µM, FABP1 0.5 µM, DAUDA 0.25 µM, F482 normalized) was 79.1%. For the same compound, the remaining activity at 0.1 µM (lipid 0.1 µM, FABP1 0.5 µM, DAUDA 0.25 µM, F482 normalized, read-out: % Fluorescence) was 74.5%. Also, where the note is “lipid 0.15 µM, FABP1 0.5 µM, DAUDA 0.25 µM, F482 normalized”, the remaining activity at 0.15 µM was 67.2%. In addition, the remaining activity at 0.2 µM (lipid 0.2 µM, FABP1 0.5 µM, DAUDA 0.25 µM, F482 normalized) amounted to 60.3%. Besides, the remaining activity at 0.25 µM (lipid 0.25 µM, FABP1 0.5 µM, DAUDA 0.25 µM, F482 normalized) came to 55.8%. Besides, for the setting “lipid 0.35 µM, FABP1 0.5 µM, DAUDA 0.25 µM, F482 normalized”, the remaining activity at 0.35 µM came out at 42.4%. The compound further returned a remaining activity at 0.45 µM (lipid 0.45 µM, FABP1 0.5 µM, DAUDA 0.25 µM, F482 normalized) of 36.3%. In addition, where the note is “lipid 0.6 µM, FABP1 0.5 µM, DAUDA 0.25 µM, F482 normalized, read-out: % Fluorescence”, the remaining activity at 0.6 µM came out at 30.3%. Further, the remaining activity at 0.9 µM (lipid 0.9 µM, FABP1 0.5 µM, DAUDA 0.25 µM, F482 normalized) turned out to be 21.6%. Besides, the remaining activity at 1.15 µM (lipid 1.15 µM, FABP1 0.5 µM, DAUDA 0.25 µM, F482 normalized) turned out to be 20.5%. Moreover, under “lipid 1.4 µM, FABP1 0.5 µM, DAUDA 0.25 µM, F482 normalized”, the remaining activity at 1.4 µM is 19.4%. For the same compound, the remaining activity at 1.9 µM (lipid 1.9 µM, FABP1 0.5 µM, DAUDA 0.25 µM, F482 normalized) is 20.4%. The off-rate (koff) (lipid (S) binding to apo-FABP1 (F), kinetic modeling, on-rate 9.0 × 10^7 M^−1 s^−1, read-out: koff, F + S ↔ FS) worked out at 4.1 s⁻¹. In addition, the Kd under setting [1] worked out at 0.01 µM. Besides, under “lipid binding to DAUDA-bound FABP1 (FD), on-rate 2.3 × 10^7 M^−1 s^−1, read-out: koff, FD + S ↔ FDS”, the dissociation rate constant (koff) was 0.24 s⁻¹. Also, the Kd under setting [2] is 0.046 µM. Moreover, the equilibrium dissociation constant (Kd) under setting [3] worked out at 10 µM. In addition, the koff (lipid binding to ternary complex FDS (full displacement of DAUDA), read-out: koff, FDS + S ↔ FSS + D) turned out to be 240 s⁻¹. The “tighter binding of palmitate to FABP1 than to P450 4A11” value (ratio of Kd values) was > 100 fold and 100 fold.
